Data as given in US7544694B2, “Substituted diaza-spiro-[5.5]-undecane derivatives and their use as neurokinin antagonists” (Janssen Pharmaceutica N.V., priority 2004, dated 2009).

Key:
Type in all cases: cell-based
NK1 = NK1 (Homo sapiens, UniProt P25103); assay: Signal transduction (ST), intracellular Ca++ (FLIPR), functional NK1 antagonistic activity; conditions: antagonist, read-out: NK1 pIC50 (converted)
Method: (§1) This test evaluates in vitro functional NK1 antagonistic activity. For the measurements of intracellular Ca^++ concentrations the cells were grown on 96-well (black wall/transparent bottom) plates from Costar for 2 days until they reached confluence. The cells were loaded with 2 μM Fluo3 in DMEM containing 0.1% BSA and 2.5 mM probenecid for 1 h at 37° C. They were washed 3× with a Krebs buffer (140 mM NaCl, 1 mM MgCl2×6H2O, 5 mM KCl, 10 mM glucose, 5 mM HEPES; 1.25 mM CaCl2; pH 7.4) containing 2.5 mM probenecid and 0.1% BSA (Ca^++-buffer). The cells were preincubated with a concentration range of antagonists for 20 min at RT and Ca^++-signals after addition of the agonists were measured in a Fluorescence Image Plate Reader (FLIPR from Molecular Devices, Crawley, England). The peak of the Ca^++-transient was considered as the relevant signal and the mean values of corresponding wells were analysed as described below.
(§2) The sigmoidal dose response curves were analysed by computerised curve-fitting, using the GraphPad Program. The EC50-value of a compound is the effective dose showing 50% of maximal effect. For mean curves the response to the agonist with the highest potency was normalised to 100%. For antagonist responses the IC50-value was calculated using non-linear regression.
(§3) The last columns indicate—without being limited thereto—for which action the compounds might be most suitable. Of course, since for some neurokinin receptors no data was determined, it is obvious that these compounds might be attributed to another suitable use.

NK2 = biological target: T1, NK2 (Homo sapiens, UniProt P21452); assay: Signal transduction (ST), intracellular Ca++ (FLIPR), NK2; conditions: antagonist, read-out: NK2 pIC50 (converted)
T1 sequence (P21452 1-398): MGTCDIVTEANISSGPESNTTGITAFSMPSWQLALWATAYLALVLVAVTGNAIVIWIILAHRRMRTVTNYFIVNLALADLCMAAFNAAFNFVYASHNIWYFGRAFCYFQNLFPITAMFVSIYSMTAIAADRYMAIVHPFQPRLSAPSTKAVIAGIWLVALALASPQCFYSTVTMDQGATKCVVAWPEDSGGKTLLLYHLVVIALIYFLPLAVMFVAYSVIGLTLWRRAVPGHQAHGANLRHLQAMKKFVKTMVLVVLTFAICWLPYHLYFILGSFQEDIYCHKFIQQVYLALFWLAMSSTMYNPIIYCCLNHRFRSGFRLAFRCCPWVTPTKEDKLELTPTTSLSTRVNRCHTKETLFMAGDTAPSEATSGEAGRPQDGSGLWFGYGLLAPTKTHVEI
Method: [The source words this procedure for another target and reports this target under the same test.] as §1, §2, §3

NK3 = biological target: T2, NK3 (Homo sapiens, UniProt P29371); assay: Signal transduction (ST), intracellular Ca++ (FLIPR), NK3; conditions: antagonist, read-out: NK3 pIC50 (converted)
T2 sequence (P29371 1-465): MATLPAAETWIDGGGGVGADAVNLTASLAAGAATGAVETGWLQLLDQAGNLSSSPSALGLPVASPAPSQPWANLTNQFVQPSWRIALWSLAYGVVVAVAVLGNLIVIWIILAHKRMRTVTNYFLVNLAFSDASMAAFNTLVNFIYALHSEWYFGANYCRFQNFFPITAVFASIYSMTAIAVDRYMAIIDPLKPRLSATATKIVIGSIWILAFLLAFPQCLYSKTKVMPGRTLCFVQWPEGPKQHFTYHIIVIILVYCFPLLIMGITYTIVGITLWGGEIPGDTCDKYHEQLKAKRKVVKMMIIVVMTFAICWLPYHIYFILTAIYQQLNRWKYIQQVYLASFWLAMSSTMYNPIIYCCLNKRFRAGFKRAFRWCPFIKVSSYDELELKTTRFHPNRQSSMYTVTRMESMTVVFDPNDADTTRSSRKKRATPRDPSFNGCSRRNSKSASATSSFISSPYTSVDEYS
Method: [The source words this procedure for another target and reports this target under the same test.] as §1, §2, §3

Chain of NK1 (P25103 whole entry): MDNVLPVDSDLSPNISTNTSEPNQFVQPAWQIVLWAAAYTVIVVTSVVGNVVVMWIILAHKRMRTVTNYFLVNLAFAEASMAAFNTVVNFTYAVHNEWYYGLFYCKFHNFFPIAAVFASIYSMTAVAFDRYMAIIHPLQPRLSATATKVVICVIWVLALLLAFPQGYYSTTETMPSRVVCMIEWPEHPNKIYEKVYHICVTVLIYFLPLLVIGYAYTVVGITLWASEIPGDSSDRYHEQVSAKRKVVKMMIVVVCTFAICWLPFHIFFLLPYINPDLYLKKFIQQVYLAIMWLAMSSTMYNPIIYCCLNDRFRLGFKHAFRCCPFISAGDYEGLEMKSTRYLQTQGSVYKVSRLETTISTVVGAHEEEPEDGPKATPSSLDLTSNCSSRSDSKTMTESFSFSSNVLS

Compound | IC50 (NK1) [nM] | IC50 (NK2) [nM] | IC50 (NK3) [nM]
Cc1cn(CC(=O)N2CCC3(CC2)CCN([C@H]2CCN(C(=O)c4cc(C(F)(F)F)cc(C(F)(F)F)c4)[C@H](Cc4ccccc4)C2)CC3)c(=O)[nH]c1=O [Compound 80] | 29.5 | > 10000 | > 10000
O=C(Cc1ccc2c(c1)OCO2)N1CCC2(CC1)CCN([C@H]1CCN(C(=O)c3cc(C(F)(F)F)cc(C(F)(F)F)c3)[C@H](Cc3ccccc3)C1)CC2 [Compound 81] | 115 | 5250 | > 10000
O=C1OC(CC(=O)N2CCC3(CC2)CCN([C@H]2CCN(C(=O)c4cc(C(F)(F)F)cc(C(F)(F)F)c4)[C@H](Cc4ccccc4)C2)CC3)c2ccccc21 (stereo partly drawn) [Compound 82] | 46.8 | 2000 | 8910
COc1cccc(CCC(=O)N2CCC3(CC2)CCN([C@H]2CCN(C(=O)c4cc(C(F)(F)F)cc(C(F)(F)F)c4)[C@H](Cc4ccccc4)C2)CC3)c1 [Compound 83] | 36.3 | 2570 | 8910
O=C(C=Cc1ccco1)N1CCC2(CC1)CCN([C@H]1CCN(C(=O)c3cc(C(F)(F)F)cc(C(F)(F)F)c3)[C@H](Cc3ccccc3)C1)CC2 [Compound 84] | 282 | 7240 | > 10000
O=C(C=Cc1ccoc1)N1CCC2(CC1)CCN([C@H]1CCN(C(=O)c3cc(C(F)(F)F)cc(C(F)(F)F)c3)[C@H](Cc3ccccc3)C1)CC2 [Compound 85] | 309 | > 10000 | > 10000
C/C(=C\C(=O)N1CCC2(CC1)CCN([C@H]1CCN(C(=O)c3cc(C(F)(F)F)cc(C(F)(F)F)c3)[C@H](Cc3ccccc3)C1)CC2)C(F)(F)F [Compound 86] | 129 | > 10000 | > 10000
O=C(C(CO)c1ccccc1)N1CCC2(CC1)CCN([C@H]1CCN(C(=O)c3cc(C(F)(F)F)cc(C(F)(F)F)c3)[C@H](Cc3ccccc3)C1)CC2 (stereo partly drawn) [Compound 88] | 41.7 | 3020 | > 10000
O=C(c1cc(C(F)(F)F)cc(C(F)(F)F)c1)N1CC[C@H](N2CCC3(CCN(C(=O)C4(c5ccccc5)CC4)CC3)CC2)C[C@H]1Cc1ccccc1 [Compound 89] | 148 | 2510 | > 10000
O=C(c1cc(C(F)(F)F)cc(C(F)(F)F)c1)N1CC[C@H](N2CCC3(CCN(C(=O)C4(c5ccccc5)CCCC4)CC3)CC2)C[C@H]1Cc1ccccc1 [Compound 90] | 355 | 5370 | > 10000
O=C(c1cc(C(F)(F)F)cc(C(F)(F)F)c1)N1CC[C@H](N2CCC3(CC2)CCN(S(=O)(=O)C(F)(F)F)CC3)C[C@H]1Cc1ccccc1 [Compound 91] | 87.1 | 1380 | 4370
O=C(c1cc(C(F)(F)F)cc(C(F)(F)F)c1)N1CCC(N2CCC3(CC2)CCN(S(=O)(=O)c2cccs2)CC3)CC1Cc1ccccc1 (stereo not drawn) [Compound 92] | 17 | 1320 | 339
O=C(c1cc(C(F)(F)F)cc(C(F)(F)F)c1)N1CC[C@H](N2CCC3(CC2)CCN(S(=O)(=O)c2ccsc2)CC3)C[C@H]1Cc1ccccc1 [Compound 93] | 25.7 | 1100 | 501
O=C(c1cc(C(F)(F)F)cc(C(F)(F)F)c1)N1CC[C@H](N2CCC3(CC2)CCN(S(=O)(=O)c2ccc(Cl)s2)CC3)C[C@H]1Cc1ccccc1 [Compound 94] | 132 | > 10000 | 575
O=C(c1cc(C(F)(F)F)cc(C(F)(F)F)c1)N1CC[C@H](N2CCC3(CC2)CCN(S(=O)(=O)c2ccc(Br)s2)CC3)C[C@H]1Cc1ccccc1 [Compound 95] | 269 | 1910 | 2340
O=C(c1cc(C(F)(F)F)cc(C(F)(F)F)c1)N1CC[C@H](N2CCC3(CC2)CCN(S(=O)(=O)c2cc(Cl)c(Cl)s2)CC3)C[C@H]1Cc1ccccc1 [Compound 96] | 468 | 1260 | ~10000

Compound | IC50 (NK1) [nM] | IC50 (NK2) [nM] | IC50 (NK3) [nM]
O=C(c1cc(C(F)(F)F)cc(C(F)(F)F)c1)N1CC[C@H](N2CCC3(CC2)CCN(S(=O)(=O)c2cc(Br)c(Br)s2)CC3)C[C@H]1Cc1ccccc1 [Compound 98] | 977 | > 10000 | > 10000
O=C(c1cc(C(F)(F)F)cc(C(F)(F)F)c1)N1CC[C@H](N2CCC3(CC2)CCN(S(=O)(=O)c2c(Cl)sc(Cl)c2Br)CC3)C[C@H]1Cc1ccccc1 [Compound 99] | 562 | > 10000 | > 10000
Cc1nc(S(=O)(=O)N2CCC3(CCN([C@H]4CCN(C(=O)c5cc(C(F)(F)F)cc(C(F)(F)F)c5)[C@H](Cc5ccccc5)C4)CC3)CC2)cn1C [Compound 100] | 12 | 1260 | 331
Cc1noc(C)c1S(=O)(=O)N1CCC2(CCN([C@H]3CCN(C(=O)c4cc(C(F)(F)F)cc(C(F)(F)F)c4)[C@H](Cc4ccccc4)C3)CC2)CC1 [Compound 101] | 49 | 2000 | 6030
O=C(c1cc(C(F)(F)F)cc(C(F)(F)F)c1)N1CC[C@H](N2CCC3(CC2)CCN(S(=O)(=O)c2ccccc2)CC3)C[C@H]1Cc1ccccc1 [Compound 102] | 61.7 | > 10000 | 708
Cc1ccccc1S(=O)(=O)N1CCC2(CCN([C@H]3CCN(C(=O)c4cc(C(F)(F)F)cc(C(F)(F)F)c4)[C@H](Cc4ccccc4)C3)CC2)CC1 [Compound 103] | 50.1 | 2510 | 1510
Cc1cccc(S(=O)(=O)N2CCC3(CCN([C@H]4CCN(C(=O)c5cc(C(F)(F)F)cc(C(F)(F)F)c5)[C@H](Cc5ccccc5)C4)CC3)CC2)c1 [Compound 104] | 64.6 | ~4570 | 1950
Cc1ccc(S(=O)(=O)N2CCC3(CCN([C@H]4CCN(C(=O)c5cc(C(F)(F)F)cc(C(F)(F)F)c5)[C@H](Cc5ccccc5)C4)CC3)CC2)cc1 [Compound 105] | 105 | 2450 | 2000
O=C(c1cc(C(F)(F)F)cc(C(F)(F)F)c1)N1CC[C@H](N2CCC3(CC2)CCN(S(=O)(=O)c2cccc(Cl)c2)CC3)C[C@H]1Cc1ccccc1 [Compound 107] | 115 | 4170 | 3160
O=C(c1cc(C(F)(F)F)cc(C(F)(F)F)c1)N1CC[C@H](N2CCC3(CC2)CCN(S(=O)(=O)c2ccc(Cl)cc2)CC3)C[C@H]1Cc1ccccc1 [Compound 108] | 324 | 2630 | 3980
O=C(c1cc(C(F)(F)F)cc(C(F)(F)F)c1)N1CC[C@H](N2CCC3(CC2)CCN(S(=O)(=O)c2c(Cl)cccc2Cl)CC3)C[C@H]1Cc1ccccc1 [Compound 111] | 204 | ~229 | 5370
O=C(c1cc(C(F)(F)F)cc(C(F)(F)F)c1)N1CC[C@H](N2CCC3(CC2)CCN(S(=O)(=O)c2ccc(Cl)cc2Cl)CC3)C[C@H]1Cc1ccccc1 [Compound 112] | 550 | > 10000 | > 10000
O=C(c1cc(C(F)(F)F)cc(C(F)(F)F)c1)N1CC[C@H](N2CCC3(CC2)CCN(S(=O)(=O)c2ccc(Cl)c(Cl)c2)CC3)C[C@H]1Cc1ccccc1 [Compound 113] | 427 | > 10000 | > 10000
O=C(c1cc(C(F)(F)F)cc(C(F)(F)F)c1)N1CC[C@H](N2CCC3(CC2)CCN(S(=O)(=O)c2cc(Cl)cc(Cl)c2)CC3)C[C@H]1Cc1ccccc1 [Compound 114] | 363 | > 10000 | > 10000
O=C(c1cc(C(F)(F)F)cc(C(F)(F)F)c1)N1CC[C@H](N2CCC3(CC2)CCN(S(=O)(=O)c2cc(Cl)c(Cl)cc2Cl)CC3)C[C@H]1Cc1ccccc1 [Compound 115] | 490 | > 10000 | > 10000
